This passage reports IC50 results from US8541407B2 (ArQule, Inc., priority 2010, dated 2013).

pIC50: −log10 of the molar value.

In the assay the target is AKT1 (Homo sapiens (Human), UniProt P31749). The experiment in a line: Inactive Akt Alpha Screen Assay. As to conditions: non *labeled: Akt Alpha Screen assay; read-out: AKT1 biochemical assay, IC50. In outline: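 AKT1 activated in situ by PDK1, MAPKAPK2, lipid vesicles and ATP, then phosphorylating biotinylated crosstide for 30 min at room temperature. Stopped with 10 mM EDTA; phosphopeptide detected by AlphaScreen using phospho-AKT substrate antibody (1:350), Protein A acceptor and streptavidin donor beads, 90 min dark, ex 640/em 570 nm.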
Sequence of AKT1 (P31749 whole entry): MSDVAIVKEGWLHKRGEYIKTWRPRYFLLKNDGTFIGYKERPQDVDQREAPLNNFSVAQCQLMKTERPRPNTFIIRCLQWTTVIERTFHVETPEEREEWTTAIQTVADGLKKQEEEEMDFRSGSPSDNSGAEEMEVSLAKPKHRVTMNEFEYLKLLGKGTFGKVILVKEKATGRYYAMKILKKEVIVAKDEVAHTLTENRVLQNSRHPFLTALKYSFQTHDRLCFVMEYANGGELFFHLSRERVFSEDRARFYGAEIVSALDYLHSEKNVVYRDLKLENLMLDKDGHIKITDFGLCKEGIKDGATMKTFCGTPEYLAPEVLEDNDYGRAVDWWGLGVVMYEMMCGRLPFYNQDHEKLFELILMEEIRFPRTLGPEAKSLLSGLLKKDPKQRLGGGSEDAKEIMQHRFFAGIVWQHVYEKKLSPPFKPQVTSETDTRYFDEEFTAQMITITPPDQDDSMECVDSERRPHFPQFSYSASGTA
Regarding `Cn1cnc(S(=O)(=O)NCc2ccc(-c3nnc4n3-c3cccnc3Nc3ccccc3-4)cc2)c1` [Example 103, N-(4-(9H-benzo[f]pyrido[2,3-b][1,2,4]triazolo[4,3-d][1,4]diazepin-3-yl)benzyl)-1-methyl-1H-imidazole-4-sulfonamide], the pIC50 was 6.62. On to `Cn1ccc(S(=O)(=O)NCc2ccc(-c3nnc4n3-c3cccnc3Nc3ccccc3-4)cc2)n1` [Example 104, N-(4-(9H-benzo[f]pyrido[2,3-b][1,2,4]triazolo[4,3-d][1,4]diazepin-3-yl)benzyl)-1-methyl-1H-pyrazole-3-sulfonamide], for which the pIC50 was 6.92. The result for `O=S(=O)(NCc1ccc(-c2nnc3n2-c2cccnc2Nc2ccccc2-3)cc1)c1cccnc1` [Example 105, N-(4-(9H-benzo[f]pyrido[2,3-b][1,2,4]triazolo[4,3-d][1,4]diazepin-3-yl)benzyl)pyridine-3-sulfonamide] reads 6.66; that for `O=S(=O)(Nc1ccc(-c2nnc3n2-c2cccnc2Nc2ccccc2-3)cc1)c1ccccc1` [Example 106, N-(4-(9H-benzo[f]pyrido[2,3-b][1,2,4]triazolo[4,3-d][1,4]diazepin-3-yl)phenyl)benzenesulfonamide], 5.18; that for `O=C(NCc1ccc(-c2nnc3n2-c2cccnc2Nc2ccccc2-3)cc1)Nc1ccccc1` [Example 107, 1-(4-(9H-benzo[f]pyrido[2,3-b][1,2,4]triazolo[4,3-d][1,4]diazepin-3-yl)benzyl)-3-phenylurea], 5.54.

Regarding `O=S(=O)(NCCc1ccc(-c2nnc3n2-c2cccnc2Nc2ccccc2-3)cc1)c1ccccc1` [Example 108, N-(4-(9H-benzo[f]pyrido[2,3-b][1,2,4]triazolo[4,3-d][1,4]diazepin-3-yl)phenethyl)benzenesulfonamide], the pIC50 was 5.24. `COc1ccc(S(=O)(=O)NCCc2ccc(-c3nnc4n3-c3cccnc3Nc3ccccc3-4)cc2)cc1` [Example 109, N-(4-(9H-benzo[f]pyrido[2,3-b][1,2,4]triazolo[4,3-d][1,4]diazepin-3-yl)phenethyl)-4-methoxybenzenesulfonamide]: the pIC50 is 5.04. For `O=C(NCCc1ccc(-c2nnc3n2-c2cccnc2Nc2ccccc2-3)cc1)c1ccccc1` [Example 111, N-(4-(9H-benzo[f]pyrido[2,3-b][1,2,4]triazolo[4,3-d][1,4]diazepin-3-yl)phenethyl)benzamide], the pIC50 was 6.20. Regarding `O=S(=O)(NCc1ccc(-c2nnc3n2-c2cccnc2Nc2ccccc2-3)cc1)c1ccccc1F` [Example 112, N-(4-(9H-benzo[f]pyrido[2,3-b][1,2,4]triazolo[4,3-d][1,4]diazepin-3-yl)benzyl)-2-fluorobenzenesulfonamide], the pIC50 was 6.77. Take `O=S(=O)(NCc1ccc(-c2nnc3n2-c2cccnc2Nc2ccccc2-3)cc1)c1cccc(F)c1` [Example 113, N-(4-(9H-benzo[f]pyrido[2,3-b][1,2,4]triazolo[4,3-d][1,4]diazepin-3-yl)benzyl)-3-fluorobenzenesulfonamide]: the pIC50 is 6.40. As for `O=S(=O)(NCc1ccc(-c2nnc3n2-c2cccnc2Nc2ccccc2-3)cc1)c1ccc(Cl)cc1` [Example 119, N-(4-(9H-benzo[f]pyrido[2,3-b][1,2,4]triazolo[4,3-d][1,4]diazepin-3-yl)benzyl)-4-chlorobenzenesulfonamide], the pIC50 is 6.66.

Regarding `CC(=O)Nc1ccc(S(=O)(=O)NCc2ccc(-c3nnc4n3-c3cccnc3Nc3ccccc3-4)cc2)cc1` [Example 120, N-(4-(N-(4-(9H-benzo[f]pyrido[2,3-b][1,2,4]triazolo[4,3-d][1,4]diazepin-3-yl)benzyl)sulfamoyl)phenyl) acetamide], the pIC50 is 6.85. The result for `O=C(NCc1ccc(-c2nnc3n2-c2cccnc2Nc2ccccc2-3)cc1)Nc1cccc(F)c1` [Example 122, 1-(4-(9H-benzo[f]pyrido[2,3-b][1,2,4]triazolo[4,3-d][1,4]diazepin-3-yl)benzyl)-3-(3-fluorophenyl)urea] reads 5.96; that for `O=C(NCc1ccc(-c2nnc3n2-c2cccnc2Nc2ccccc2-3)cc1)Nc1ccc(F)cc1` [Example 124, 1-(4-(9H-benzo[f]pyrido[2,3-b][1,2,4]triazolo[4,3-d][1,4]diazepin-3-yl)benzyl)-3-(4-fluorophenyl)urea], 5.92.

For the molecule `Cc1cccc(NC(=O)NCc2ccc(-c3nnc4n3-c3cccnc3Nc3ccccc3-4)cc2)c1` [Example 125, 1-(4-(9H-benzo[f]pyrido[2,3-b][1,2,4]triazolo[4,3-d][1,4]diazepin-3-yl)benzyl)-3-(m-tolyl)urea], the pIC50 was 6.32.

As for `c1ccc(-c2nnc(C3CCN(Cc4ccc(-c5nnc6n5-c5ccccc5Nc5ccccc5-6)cc4)CC3)[nH]2)nc1` [Example 129, 3-(4-((4-(5-(pyridin-2-yl)-4H-1,2,4-triazol-3-yl)piperidin-1-yl)methyl)phenyl)-9H-dibenzo[b,f][1,2,4]triazolo[4,3-d][1,4]diazepine], the pIC50 was 6.60. The result for `N#Cc1ccc(C(=O)NC2CCN(Cc3ccc(-c4nnc5n4-c4cccnc4Nc4ccccc4-5)cc3)CC2)cc1` [Example 130, N-(1-(4-(9H-benzo[f]pyrido[2,3-b][1,2,4]triazolo[4,3-d][1,4]diazepin-3-yl)benzyl)piperidin-4-yl)-4-cyanobenzamide] reads 5.77. As to `c1ccc2c(c1)Nc1ncccc1-n1c(-c3ccc(CN4CCC(c5nnc(-c6ccncc6)[nH]5)CC4)cc3)nnc1-2` [Example 131, 3-(4-((4-(5-(pyridin-4-yl)-4H-1,2,4-triazol-3-yl)piperidin-1-yl)methyl)phenyl)-9H-benzo[f]pyrido[2,3-b][1,2,4]triazolo[4,3-d][1,4]diazepine], the pIC50 was 6.77. Then `O=C(c1ccc(F)cc1)N1CCN(Cc2ccc(-c3nnc4n3-c3cccnc3Nc3ccccc3-4)cc2)CC1` [Example 132, (4-(4-(9H-benzo[f]pyrido[2,3-b][1,2,4]triazolo[4,3-d][1,4]diazepin-3-yl)benzyl)piperazin-1-yl)(4-fluorophenyl)methanone], with 5.49. Turning to `O=C(C1CCCC1)N1CCN(Cc2ccc(-c3nnc4n3-c3cccnc3Nc3ccccc3-4)cc2)CC1` [Example 133, (4-(4-(9H-benzo[f]pyrido[2,3-b][1,2,4]triazolo[4,3-d][1,4]diazepin-3-yl)benzyl)piperazin-1-yl)(cyclopentyl)methanone], the pIC50 was 5.47. As to `COc1ccccc1C(=O)N1CCN(Cc2ccc(-c3nnc4n3-c3cccnc3Nc3ccccc3-4)cc2)CC1` [Example 134, (4-(4-(9H-benzo[f]pyrido[2,3-b][1,2,4]triazolo[4,3-d][1,4]diazepin-3-yl)benzyl)piperazin-1-yl)(2-methoxyphenyl)methanone], the pIC50 is 6.37.

As to `O=C(CCc1ccccc1)N1CCN(Cc2ccc(-c3nnc4n3-c3cccnc3Nc3ccccc3-4)cc2)CC1` [Example 135, 1-(4-(4-(9H-benzo[f]pyrido[2,3-b][1,2,4]triazolo[4,3-d][1,4]diazepin-3-yl)benzyl)piperazin-1-yl)-3-phenylpropan-1-one], the pIC50 is 5.47.

For `Cc1cccc(C(=O)N2CCN(Cc3ccc(-c4nnc5n4-c4cccnc4Nc4ccccc4-5)cc3)CC2)c1` [Example 136, (4-(4-(9H-benzo[f]pyrido[2,3-b][1,2,4]triazolo[4,3-d][1,4]diazepin-3-yl)benzyl)piperazin-1-yl)(m-tolyl)methanone], the pIC50 is 5.89. Then `COc1ccc(C(=O)N2CCN(Cc3ccc(-c4nnc5n4-c4cccnc4Nc4ccccc4-5)cc3)CC2)cc1` [Example 137, (4-(4-(9H-benzo[f]pyrido[2,3-b][1,2,4]triazolo[4,3-d][1,4]diazepin-3-yl)benzyl)piperazin-1-yl)(4-methoxyphenyl)methanone], with 5.85. Turning to `COc1cccc(C(=O)N2CCN(Cc3ccc(-c4nnc5n4-c4cccnc4Nc4ccccc4-5)cc3)CC2)c1` [Example 138, (4-(4-(9H-benzo[f]pyrido[2,3-b][1,2,4]triazolo[4,3-d][1,4]diazepin-3-yl)benzyl)piperazin-1-yl)(3-methoxyphenyl)methanone], the pIC50 was 5.66. Regarding `N#Cc1ccc(C(=O)N2CCN(Cc3ccc(-c4nnc5n4-c4cccnc4Nc4ccccc4-5)cc3)CC2)cc1` [Example 139, 4-(4-(4-(9H-benzo[f]pyrido[2,3-b][1,2,4]triazolo[4,3-d][1,4]diazepin-3-yl)benzyl)piperazine-1-carbonyl)benzonitrile], the pIC50 is 6.00. Regarding `O=C(Cc1ccccc1)N1CCN(Cc2ccc(-c3nnc4n3-c3cccnc3Nc3ccccc3-4)cc2)CC1` [Example 140, 1-(4-(4-(9H-benzo[f]pyrido[2,3-b][1,2,4]triazolo[4,3-d][1,4]diazepin-3-yl)benzyl)piperazin-1-yl)-2-phenylethanone], the pIC50 is 5.22.

Turning to `O=C(c1ccccc1F)N1CCN(Cc2ccc(-c3nnc4n3-c3cccnc3Nc3ccccc3-4)cc2)CC1` [Example 141, (4-(4-(9H-benzo[f]pyrido[2,3-b][1,2,4]triazolo[4,3-d][1,4]diazepin-3-yl)benzyl)piperazin-1-yl)(2-fluorophenyl)methanone], the pIC50 is 6.35. `Cc1cc(C(=O)N2CCN(Cc3ccc(-c4nnc5n4-c4cccnc4Nc4ccccc4-5)cc3)CC2)no1` [Example 142, (4-(4-(9H-benzo[f]pyrido[2,3-b][1,2,4]triazolo[4,3-d][1,4]diazepin-3-yl)benzyl)piperazin-1-yl)(5-methylisoxazol-3-yl)methanone]: the pIC50 was 5.54.

Consider `O=C(c1ccc(F)c(F)c1)N1CCN(Cc2ccc(-c3nnc4n3-c3cccnc3Nc3ccccc3-4)cc2)CC1` [Example 143, (4-(4-(9H-benzo[f]pyrido[2,3-b][1,2,4]triazolo[4,3-d][1,4]diazepin-3-yl)benzyl)piperazin-1-yl)(3,4-difluorophenyl)methanone], for which the pIC50 was 5.31.

For orientation: pIC50 means the negative decadic logarithm of the IC50, by convention in mol/L.
